Tested on: MCF-7/ADR cells
Experiment: Annexin V/PI double staining flow cytometric apoptosis test
Format: cell-based, human
Settings: IC50 value, 24 h
Source text: One of the optional mechanisms regarding the lethal action of chemotherapeutic medicines is blocking cell cycle progression, triggering apoptosis with otherwise mutual effect. […] The pivotal relation of the newly synthesized MCF-7/ADR “anticancer drugs” was further evaluated using the Annexin V/PI double staining flow cytometric test. […] In comparison to Doxorubicin’s 30% total apoptosis rate, which was nearly identical to 4a, 4c and 4g, compounds 4d, 4e and 4i were leading with percentages of 41%, 31% and 38%, respectively. Only compounds 4a (8.5%) and 4g (11%) had greater effects on necrosis compared to doxorubicin (5%). Other examined substances caused both early and late apoptosis in all treated cells (Figure 7b). Therefore, MCF-7/ADR cytotoxicity is induced by apoptotic processes, apparently without negative effects on P-gp.
(a) The dot plot of the Annexin V/PI-stained cells, treated with the indicated drugs. […] The data are expressed as the mean ± SD of three independent experiments in triplicate. Significances are shown in comparison to control cells (* p < 0.001). TEXT PRINTED IN THE PICTURE: (a) DOX.: 3.33%; 18.41%; 7.85% | (a) 4a: 8.66%; 18.17%; 4.24% | (a) 4c: 2.74%; 12.73%; 9.11% | (a) 4d: 4.85%; 27.44%; 8.73% | (a) 4e: 5.77%; 9.92%; 15.92% | (a) 4g: 11.04%; 3.94%; 7.38% | (a) 4i: 5.54%; 12.87%; 19.61% DOUBTS OF THE COPYIST ABOUT THIS PICTURE: The quadrant percentages in panel (a) are printed very small and blurred, so 3, 5, 6, 8 and 9 cannot be told apart with certainty. […] They are told apart only by their quadrant in the PI / Annexin V-FITC plot, and are listed upper left, upper right, lower right. / The sample line in each plot reads MCF7/ADR. In the 4g plot it is cut off as 'MCF7/AI'. / The panel 'Cont.' (untreated control: 1.56%, 0.15%, 0.48%) is left out because it is not a substance.

| SMILES | necrosis | total apoptosis rate |
| --- | --- | --- |
| N#CC1=C(N)Oc2ccc3ccc(O)cc3c2C1c1ccc(Cl)c(Cl)c1 (centres unmarked) [4g, 3-Amino-1-(3,4-Dichlorophenyl)-9-Hydroxy-1H-Benzo[f]chromene-2-Carbonitrile] | 11% | – |
| N#CC1=C(N)Oc2ccc3ccc(O)cc3c2C1c1cc(Br)cc(Br)c1 (centres unmarked) [4i, 3-Amino-1-(3,5-Dibromophenyl)-9-Hydroxy-1H-Benzo[f]chromene-2-Carbonitrile] | – | 38% |
| N#CC1=C(N)Oc2ccc3ccc(O)cc3c2C1c1ccc(Cl)cc1Cl (centres unmarked) [4d, 3-Amino-1-(2,4-Dichlorophenyl)-9-Hydroxy-1H-Benzo[f]chromene-2-Carbonitrile] | – | 41% |
| N#CC1=C(N)Oc2ccc3ccc(O)cc3c2C1c1ccc(F)cc1F (centres unmarked) [4a, 3-Amino-1-(2,4-Difluorophenyl)-9-Hydroxy-1H-Benzo[f]chromene-2-Carbonitrile] | 8.5% | – |
| N#CC1=C(N)Oc2ccc3ccc(O)cc3c2C1c1cc(Cl)ccc1Cl (centres unmarked) [4e, 3-Amino-1-(2,5-Dichlorophenyl)-9-Hydroxy-1H-Benzo[f]chromene-2-Carbonitrile] | – | 31% |

From publication PMC9820082, “Synthesis of 9-Hydroxy-1H-Benzo[f]chromene Derivatives with Effective Cytotoxic Activity on MCF7/ADR, P-Glycoprotein Inhibitors, Cell Cycle Arrest and Apoptosis Effects” (International Journal of Molecular Sciences, 2022)
